# Test results from patent US20260060947A1 (INSTITUT PASTEUR DE MONTEVIDEO, priority 2019, published 2026).
# Entries after “also recorded” stand apart in the source; their conditions may differ.
# Columns and labels:
# Assay type in all cases: in vivo, rat
# SOD1^G93A rats [1] = assay: Neuromuscular junction innervation analysis in whole mounted EDL muscle; details: 100 mg/kg/day post-paralysis; vs vehicle
# Protocol: Extensor digitorium longus (EDL) muscles from the NonTg and SOD1^G93A hind limbs were dissected. Then, tissues were blocked for 2 h at room temperature (BSA 5% v/v, Triton X-100 0.8% v/v in PBS pH=7.4), incubated with primary antibodies or fluorescent probes at 4° C. overnight: axon and post-synaptic plates were carried out using 1:1000 rabbit anti-heavy chain neurofilament-Alexa Fluor 555 (Millipore, #MAB5256A5) and fluorescently labeled a-bungarotoxin-FITC [αBTX, (Thermo Fisher Scientific, B13422)], axon presynaptic terminals were labeled with 1:300 rabbit anti-synaptophysin-Alexa Fluor 555 (Abcam, #ab206870). After washing 4 times with PBS, whole-mount muscles were mounted using DPX. Structural changes of the neuromuscular junction were scored using maximum-intensity projections of images acquired from whole-mounted muscles. Neuromuscular junction innervation analysis was performed taking into consideration those postsynaptic motor endplates occupied by a presynaptic axon terminal, where full innervation was defined as at least 80% of overlapping between pre- and postsynaptic. An average of 100 neuromuscular junctions per animal was analyzed using the ImageJ software.
# SOD1^G93A rats [2] = assay: Motor neuron analysis in lumbar spinal cord (ChAT, soma size, ubiquitin, nitrotyrosine, synaptic terminals)
# Protocol: One of the main features of ALS in both human patients and animal models is motor neuron loss, thus the effect of BANA on motor neuron size and number was characterized. To further investigate the protective effect of BANA on motor neuron pathology in SOD1^G93A symptomatic rats, experiments were conducted to assess the number of synaptic terminals contacting motor neuron cell bodies in the ventral spinal cord as well as the denervation of neuromuscular junctions.
# The number of motor neurons expressing ChAT was assessed by counting the positive cells in the gray matter of the lumbar spinal cord of non-transgenic compared with symptomatic SOD1^G93A onset, vehicle- and BANA treated rats. Motor neuron counting was assessed by counting ChAT positive cells in the ventral horn on eight 30 μm sections taken 100 μm apart. The longest axis (length) of each soma was taken into consideration to quantify the mean size of motor neuron soma. The analysis was performed manually in at least 10 histological sections per animal (four different rats for each condition) using the cell counter tool of the ImageJ software. Statistical studies were performed using statistical tools of the GraphPad Prism 7 software. Descriptive statistics were used for each group, and Kruskal-Wallis analysis followed by Dunn's comparison test was used among groups. Results are presented as mean±SEM, with p<0.05 considered significant.
# In other experiments, the number of synaptic vesicles contacting motor neuron cell bodies was assessed by immunohistochemistry by counting VGlut-1-positive and Synaptophysin-positive puncta in Rexed laminae VII and IX. Synaptic terminals were quantified in at least 20 motor neurons per animal (4 different rats per condition) using the Analyze Particles tool of ImageJ software.
# SOD1^G93A rats [3] = assay: Immunohistochemical analysis of gliosis in the ventral horn of lumbar spinal cord; details: 15 days post-paralysis
# Protocol: After 15 days of treatment using 100 mg/kg/day of BANA, starting after paralysis onset, animals were deeply anesthetized and transcardial perfusion was performed with 0.9% saline and 4% paraformaldehyde in […] (pH 7.2-7.4). Fixed spinal cords were removed, post-fixed by PFA 4% immersion overnight, and then transverse sectioned (30 m) in a Leica cryostat. Serial sections were collected in 100 mM PBS for immunohistochemistry.
# At least 4 rats were analyzed for each immunohistochemistry experiment. Three different conditions were studied as follows: 1) non-transgenic (NonTg) rats of 160-180 days; 2) transgenic SOD1^G93A rats of 195-210 days treated with vehicle (paralysis, 15 d-vehicle) and 3) transgenic SOD1^G93A rats of 195-210 days treated with 50 or 100 mg/kg/day of BANA during 15 days. After treatment animals were deeply anesthetized and transcardial perfusion was performed with paraformaldehyde 4% (v/v) in PBS pH=7.4. Fixed spinal cords were removed, post-fixed by immersion overnight in paraformaldehyde 4% (v/v) in PBS pH=7.4, and then transverse sectioned (30 m) in a Leica cryostat. Serial sections were collected in PBS pH=7.4 for immunohistochemistry.
# Free-floating sections were blocked and permeabilized for 1 hour at room temperature with 0.5% Triton X-100 and 5% BSA in PBS (pH=7.4), passed through washing buffered solutions, and incubated overnight at 4° C. in a solution of 0.5% Triton X-100 and BSA 1% in PBS (pH=7.4) containing the primary antibodies: mouse anti-GFAP (G3893 1:400), rabbit anti-GFAP (Sigma #G9269 1:400), mouse anti-S1000 (Sigma #S2532 1:400), rabbit anti-Iba1 (Wako #019-19741, 1:500), rabbit anti-ChAT (Choline acetyltransferase) (Millipore, #AB143, 1:300), mouse anti-CD68 (Abcam, #ab31630, 1:300), rabbit anti-CD34 (Abcam, #ab81289, 1:200), rabbit anti-Ki67 (Abcam, #ab66155, 1:300), rabbit anti-NF-κB-p65 (Abcam, #ab16502, 1:200), rabbit anti-Ki67 (Abcam, #ab16667, 1:200), rabbit anti-ubiquitin (Millipore, #05-1307, 1:200), mouse anti-nitrotyrosine (Millipore, #05233, 1:200), anti-VGlut-1 (SySy, #135-303, 1:300), anti-synaptophysin (Abcam, #206870, 1:300), anti-0111-Tubulin (Millipore, #MAB1637, 1:200).
# The inventors assessed the effect of BANA on markers of neuroinflammation in the degenerating spinal cords. SOD1^G93A rats were treated daily with BANA (100 mg/kg) or vehicle at the onset of motor symptoms. After 15 days of treatment, rats were euthanized and spinal cords were dissected for immunohistological analysis.
# Experiments to assess the effect of BANA on markers of neuroinflammation in the degenerating spinal cords were conducted in rats. SOD1^G93A rats were treated with BANA (100 mg/kg/day) or vehicle at the onset of symptoms. After 15 days of treatment rats were euthanized and spinal cord was removed for histological analysis.
# Microgliosis and astrogliosis were assessed by counting the expression intensity for the different markers in gray matter from the lumbar cord of non-transgenic, SOD1^G93A onset or symptomatic rats that were treated with either vehicle or BANA. The number of aberrant glial cells co-expressing the astrocytic markers GFAP and S1000 was assessed by counting the respective positive cells for both markers in gray matter from the lumbar cord of non-transgenic, SOD1^G93A onset or symptomatic rats that were treated with either vehicle or BANA. The analysis was performed in at least 10 histological sections per animal (three different rats for each condition) using the ImageJ software. Statistical studies were performed using statistical tools of GraphPad Prism 7 software. Descriptive statistics were used for each group, and Kruskal-Wallis analysis, followed by Dunn's comparison test, was used among groups. All results are presented as mean±SEM, with p<0.05 considered significant.
# [4] = 100 mg/kg/day, 15 days after paralysis onset, vs vehicle
smiles,measurement,setting,value
"O=C(O)c1ccc(/C=C/[N+](=O)[O-])cc1 [BANA, (E)-4-(2-nitrovinyl) benzoic acid]",motor endplate denervation in the EDL muscle,SOD1^G93A rats [1],significantly reduced
same,loss of VGlut-1-positive and Synaptophysin-positive synaptic terminals,"SOD1^G93A rats [2]; 100 mg/kg/day post-paralysis, vs vehicle",significantly prevented
same,number of ChAT+ motor neurons,"SOD1^G93A rats [2]; 100 mg/kg/day, 15 days after paralysis onset",prevented motor neuron loss
same,NO2-Tyrosine accumulation in surviving motor neurons,SOD1^G93A rats [2]; [4],significantly prevented
same,motor neuron size,SOD1^G93A rats [2]; [4],ameliorated
same,ubiquitin accumulation / aggregation in motor neurons,SOD1^G93A rats [2]; [4],significantly prevented
same,astrogliosis (GFAP),SOD1^G93A rats [3]; 50 mg/kg/day,failed to reduce
same,microgliosis (Iba1),SOD1^G93A rats [3]; 50 mg/kg/day,significantly reduced
same,astrocytosis (GFAP staining),"SOD1^G93A rats [3]; 100 mg/kg/day, vs vehicle",significantly reduced
same,cell proliferation in the ventral horn (Ki67-positive nuclei),"SOD1^G93A rats [3]; 100 mg/kg/day, vs vehicle",decreased; also recorded: significantly reduced
same,emergence of aberrant glial cells (GFAP/S100β) in the surroundings of motor neurons,"SOD1^G93A rats [3]; 100 mg/kg/day, vs vehicle",significantly reduced
same,"microgliosis in the ventral horn (Iba1-, CD68-, CD34-positive cells)","SOD1^G93A rats [3]; 100 mg/kg/day, vs vehicle",significantly reduced
